We go through one compound from publication PMC11191402, “High-Affinity NIR-Fluorescent Inhibitors for Tumor Imaging via Carbonic Anhydrase IX” (Bioconjugate Chemistry, 2024).

For this assay, the target named is T1, CAIX expressed in live HeLa cells (Homo sapiens, UniProt Q16790).
T1 construct: an open reading frame for the full-length CAIX protein (1–459 amino acids) without a tag; expressed in transfected cells; host or cells: HeLa cells transfected with pCMV-CAIX (TurboFect), normoxia
Description: NIR-fluorescent compound dosing on live HeLa cells (direct binding). An excerpt:
To measure NIR-fluorescent compound binding to CAIX expressed in cancer cells, the GZ22-4 compound was applied in different concentrations to live HeLa cells grown under hypoxia and normoxia, as described in the Materials and Methods section, and was previously performed for the fluorescein-conjugated CAIX inhibitor GZ19-32.[16] […] The difference was hidden in the low signal-to-noise ratio.
To increase the amount of CAIX expression, the HeLa cells were transfected with the CAIX-encoding plasmid pCMV-CAIX. There was a dramatic increase in CAIX expression observed both in the dosing curve and fluorescence microscopy results. […] In the case of transfection, we can see both the specific CAIX-dependent signal and relatively weak nonspecific binding of the dye to unknown targets at concentrations above approximately 1 μM (shown as a dashed curve, increasing at the same concentrations as the nontransfected cell dosing curve).
Fluorescence values corresponding to the transfection effect were obtained by subtraction of nontransfected values from transfected fluorescence values, showing the resultant data points as open squares. […] However, the determination of the Kd via dosing curves at such high protein concentrations is not accurate and can only serve as an estimate of affinity.
Both assays were performed as previously described.[16] In brief, to measure fluorescent compound binding to CAIX expressed in live cells, HeLa cells were seeded in 12-well plates and either incubated in hypoxia for 3 days or transfected with the CAIX-coding plasmid pCMV-CAIX next day after seeding. The TurboFect transfection reagent (Thermo Fisher) was used for transfection. […] 150 μL of the suspension from each well was transferred to Thermo Scientific Nunc MicroWell 96-Well Optical-Bottom Plates for fluorescence and absorbance measurements. 759 nm excitation and 800 nm emission wavelengths were used to measure fluorescence on a Synergy HTX, BioTek plate reader. 650 nm wavelength was used for absorbance measurements.

For the compound `CC1(C)C(/C=C/C2=C(Oc3ccc(CCC(=O)NCCOCCOCCOCCOCCOCCOCCOCCOCCOCCOCCOCCNC(=O)CCS(=O)(=O)c4c(F)c(F)c(S(N)(=O)=O)c(F)c4NC4CCCCCCC4)cc3)C(=C/C=C3\N(CCCCS(=O)(=O)[O-])c4ccccc4C3(C)C)/CCC2)=[N+](CCCCS(=O)(=O)[O-])c2ccccc21.[Na+]` [GZ22-4, Sodium 4-((Z)-2-((E)-2-(2-(4-(43-((2-(Cyclooctylamino)-3,5,6-trifluoro-4-sulfamoylphenyl)sulfonyl)-3,41-dioxo-7,10,13,16,19,22,25,28,31,34,37-undecaoxa-4,40-diazatritetracontyl)phenoxy)-3-((E)-2-(3,3-dimethyl-1-(4-sulfonatobutyl)-3H-indol-1-ium-2-yl)vinyl)cyclohex-2-en-1-ylidene)ethylidene)-3,3-dimethylindolin-1-yl)butane-1-sulfonate], the Kd (HeLa transfected with pCMV-CAIX, normoxia, nontransfected values subtracted, 120 nM CAIX, only an estimate of affinity, read-out: Kd from dosing curve on CAIX-transfected HeLa cells) was 1 nM. Further, under “nontransfected live HeLa cells, plate reader”, the “fluorescence signal in hypoxia vs normoxia” value is listed as “no difference in the fluorescence signal in hypoxia vs normoxia”. Further, under “transfected and nontransfected HeLa cell cultures”, the “concentration above which nonspecific binding of the dye to unknown targets is seen” value was greater than 1 µM.

As a reminder, the Kd is a measure of binding affinity in units of concentration.
